The conditions of data set [1]: in vivo; cited from earlier work.
For data set [2] the following is noted: n-octanol/water (stated for DADS); cited from earlier work.
For data set [3] the following is noted: after 25 g fresh garlic or 60 mg pure allicin; cited from earlier work.
The conditions of data set [4]: cited from earlier work.
A short description of data set [5]: Reaction with hydrogen peroxide, HPLC. The text has this: Hydrogen peroxide (H2O2) was chosen for use as the model oxidant because it is readily available, sufficiently reactive to produce the desired effects, and sufficiently stable to be readily observed. The availability of an inexpensive real-time probe for H2O2 measurement (the ABD-3001, which could be leased by the month from Universal Sensors Inc.) was also a consideration.
The specific ability of allyl mercaptan in this regard was deemed worthy of being experimentally investigated because further experiments were planned that would rely on this ability. […] Therefore, HPLC alone was used to measure the reactants and products.
In FIG. 7, the concentrations are reported as “uM allyl” to take into account the fact that each DADS molecule contains two allyl groups, while each AllylSH molecule has only one.
Another experiment was performed at approximate body temperature (37 degrees C.) and calculated membrane AllylSH concentration.

Another data set addresses CYP2E1 enzyme (Rattus norvegicus, UniProt P05182). The conditions noted are these: cited from earlier work.
The nature of data set [6]: pH dependence of reaction rate with cysteine.
In a further data set the test system is CYP2D6. The conditions noted are these: in 30 minutes; cited from earlier work.
A further data set concerns LDL. To be noted: cited from earlier work.
For data set [7] the following is noted: chemiluminescence assay; cited from earlier work.
The conditions of data set [8]: cited from earlier work. This is another data set of the same source.
The test system of data set [9] is total glutathione level of cells. The conditions noted are these: cited from earlier work.
The conditions of data set [10]: in vivo; cited from earlier work. This is another data set of the same source.
The conditions of data set [11]: cited from earlier work; for pKa: thiol group.
In a further data set the test system is nematodes. To be noted: cited from earlier work.
For the next data set, the system named is E-coli O157:H7. To be noted: cited from earlier work.
The target in a further data set is T1, papain (Carica papaya, UniProt P00784).
T1 sequence (P00784 134-345): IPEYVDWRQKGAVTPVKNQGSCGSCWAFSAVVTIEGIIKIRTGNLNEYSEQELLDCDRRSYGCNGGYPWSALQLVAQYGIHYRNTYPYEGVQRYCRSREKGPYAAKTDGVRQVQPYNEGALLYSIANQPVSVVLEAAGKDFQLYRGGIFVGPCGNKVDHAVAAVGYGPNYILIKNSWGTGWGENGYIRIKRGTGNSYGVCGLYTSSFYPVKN
The conditions noted are these: cited from earlier work.

Data set [12] relates to glutathione content of cells. To be noted: daily dosage of 1000 mg; cited from earlier work.

“Also recorded” adds a separate entry of the source. Where two headings read alike, the source gives them in different places.

Chain of CYP2E1 enzyme (P05182 whole entry): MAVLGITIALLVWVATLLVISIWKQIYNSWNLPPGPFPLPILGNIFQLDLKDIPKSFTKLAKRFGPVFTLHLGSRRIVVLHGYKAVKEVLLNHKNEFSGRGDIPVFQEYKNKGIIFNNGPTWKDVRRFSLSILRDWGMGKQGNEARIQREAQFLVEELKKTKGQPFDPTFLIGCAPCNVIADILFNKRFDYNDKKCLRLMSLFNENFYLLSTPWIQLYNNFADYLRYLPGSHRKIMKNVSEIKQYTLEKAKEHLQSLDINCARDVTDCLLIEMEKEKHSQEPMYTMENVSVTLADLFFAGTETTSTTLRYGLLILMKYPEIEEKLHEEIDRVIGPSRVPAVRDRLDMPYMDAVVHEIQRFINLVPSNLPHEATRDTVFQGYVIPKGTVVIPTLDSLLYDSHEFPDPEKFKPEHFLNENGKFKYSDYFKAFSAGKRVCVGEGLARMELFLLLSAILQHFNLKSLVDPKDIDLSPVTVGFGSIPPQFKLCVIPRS

Take `C=CCSSC=CC[S+]([O-])CC=C` (mixture of isomers) [ajoene]: the “production of breath AMS and acetone” value in [1] is “produce both breath AMS and acetone”.
In the case of `C=CCS[S+]([O-])CC=C` (stereo not shown) [Allicin, DiAllylThioSulfinate], in data set [2], the partition coefficient is listed as 12.3. The “detectability in blood, urine, or stool” value in [3] is reported as “undetectable”. Further, in data set [4], the “Reaction in Blood Half-life” value was <1 min and the “Reaction in Blood Product (moles)” value was “(1.6) moles”. The “time to metabolize to allyl mercaptan” value in data set [4] (red blood cells exposed to allicin) is “less than one minute”.
As for `C=CCS` [AllylSH, AllylThiol], the “formation of diallyl disulfide” value in data set [5] (0.85 mM AllylSH, 10 mM H2O2, 15 minute) is on record as “essentially linear with time”.
With `C=CCSSCC=C` [DADS, Diallyl Disulfide], the partition coefficient in [2] is 25.0. For the same molecule, in [4], the “Reaction in Blood Half-life” value is listed as 60 min and the “Reaction in Blood Product (moles)” value is given as “(0.8) moles”. Moreover, the allicin yield in data set [5] (0.2 mM DADS, 0.022 mM AllylSH, 5.0 mM H2O2, 37 degrees C., 11 minutes) stood at 0.015 mM. Also, the “rate of allicin formation” value in data set [5] (0.2 mM DADS, 5.0 mM H2O2, room temperature, no AllylSH) is recorded as “essentially linear with time”. In addition, on CYP2E1 enzyme, the “inhibition of CYP2E1” value is reported as “potent inhibitor”. Besides, the “dependence of reaction rate with cysteine on pH” value in [6] was “dramatically increasing between pH 8 and 9”. Besides, in the data set on CYP2D6, the “conversion of DADS to allicin” value is recorded as “approximately 30%”. The “production of breath AMS and acetone” value in data set [1] was “produce both breath AMS and acetone”.
For the molecule `C=CCSCC=C` [DAS, diallyl sulfide], in data set [1], the “production of breath AMS and acetone” value is recorded as “only produces breath acetone”.
Take `C=CCSSSCC=C` [DATS, Diallyl Trisulfide]: in data set [4], the “Reaction in Blood Half-life” value is recorded as 4 min and the “Reaction in Blood Product (moles)” value is “(0.8) moles”. Besides, the “production of breath AMS and acetone” value in data set [1] is “produce both breath AMS and acetone”.
On to `C=CCSC[C@H](NC(C)=O)C(=O)O` [N-acetyl-S-allylcysteine], for which the “effect on Cu2+ induced LDL oxidation” value in the data set on LDL is “significantly reduce”.
For `C=CCSC[C@H](N)C(=O)O` [SAC, S-allylcysteine], the “effect on Cu2+ induced LDL oxidation” value in the data set with LDL is listed as “significantly reduce”. Also, the “production of breath AMS and acetone” value in data set [1] is “produces no breath AMS or acetone”.
For `C=CCSSC[C@H](N)C(=O)O` [SAMC, S-AllylMercaptoCysteine], the “antioxidant or pro-oxidant activity” value in data set [7] is “most effective antioxidants”. The “protection from acetaminophen poisoning” value in data set [8] (post treatment, single dose 200 mg/kg) was “protective”. In addition, the “protection from acetaminophen poisoning” value in [8] (pretreatment) is “protect mice from acetaminophen poisoning”. Besides, in data set [4], the “Reaction in Blood Half-life” value was 3 min and the “Reaction in Blood Product (moles)” value is “(0.8) moles”. Moreover, in [9], the “total glutathione level of cells” value was “significantly increase the total glutathione level of cells; also recorded: significant increases the total glutathione level of cells”. Further, the “effect on Cu2+ induced LDL oxidation” value in the data set on LDL is “significantly reduce”. In data set [1], the “bioavailable (ingested)” value was 100%; the “production of breath AMS and acetone” value is “produce both breath AMS and acetone”.
Consider `Cc1c(C)c2c(c(C)c1O)CC[C@@](C)(CCC[C@H](C)CCC[C@H](C)CCCC(C)C)O2` [alpha-tocopherol], for which the partition coefficient in [2] is given as 550.
With `NCCS` [cysteamine], the radioprotective effect entry in [10] is recorded as “effective”.
For the molecule `N[C@@H](CS)C(=O)O` [cysteine, Cysteine], the pKa (usually the pH at which an ionisable group is half protonated) in data set [11] is on record as “approximately 8.5”; in data set [11] (listed as CySH) it was 8.44. Also, in [10], the radioprotective effect result is listed as “effective”.
On to `CCCS[S+]([O-])CCC` (stereo not shown) [dipropylthiosulfinate], for which the nematicidal activity result with nematodes was “most effective compound found”.
Turning to `N[C@@H](CCC(=O)N[C@@H](CS)C(=O)NCC(=O)O)C(=O)O` [glutathione, Glutathione], the “antioxidant or pro-oxidant activity” value in data set [7] is “most effective antioxidants”. In [11], the “pKa of transformation to thiazoline form” value is reported as 5.3 and the pKa result is “approximately 8.5”. Besides, in data set [10], the radioprotective effect entry was “effective”.
Regarding `N[C@@H](CCS)C(=O)O` [homocysteine], in [10], the radioprotective effect entry is on record as “effective”.
Take `C=CCS[S+](C)[O-]` (stereo not shown) [methyl allyl thiosulfinate]: the “activity against E-coli O157:H7” value with E-coli O157:H7 is “effective against E-coli O157:H7”.
For the molecule `CS[S+](C)[O-]` (stereo not shown) [methyl methane thiosulfinate], the “activity against E-coli O157:H7” value with E-coli O157:H7 is “effective against E-coli O157:H7”.
For `O=[N+]([O-])c1ccc([Se]S(=O)(=O)O)cc1` [selenosulfide, pNO2Ph-Se—SO3^−], the “limit of inhibition of SH-dependent enzyme” value at papain was ~50%.
Consider `O=C1O[C@H]([C@@H](O)CO)C(O)=C1O` [vitamin C], for which the “mean percentage decrease of glutathione” value in data set [12] is on record as 60%.
S-allylcysteine sulfoxide [alliin]: the “effect on Cu2+ induced LDL oxidation” value with LDL is recorded as “significantly reduce”.
As to “SnO2Ph-Se—S—SO3^− [S-aryl selenenylthiosulphate]”, on papain (by the first data point), the “inactivation of the enzyme” value is given as > 90%.

The values are drawn from patent US8217084B2, “Medicinal products incorporating bound organosulfur groups” (Allium Vitalis Incorporated, priority 2004, dated 2012).
